Measurements published in patent US20200031784A1, “OZANIMOD ADDITION SALT CRYSTAL, PREPARATION METHOD, PHARMACEUTICAL COMPOSITION, AND USES” (Solipharma LLC, priority 2017, published 2020).
Where a name gives a salt, the structure may show the parent alone. Read-outs that look alike come from different tables or passages of the source.

Tests used:
Assay type in all cases: physicochemical
[1] = Phase stability in aqueous system, slurry for 5 days (Comparative Example 2); details: slurry 5 days
Experimental: The phase stability of crystalline forms of ozanimod salts of Examples 1 to 124 and ozanimod hydrochloride crystalline form of Preparation Example 2 were tested in aqueous system.

[2] = Isothermal adsorption curve (dynamic vapor sorption), weight change; details: in the range of 0% to 50%
Experimental: Dynamic vapor sorption data and isothermal sorption data are collected on TA Instruments Q5000 TGA. A sample of 1 to 10 mg is usually placed in a platinum pan; and the TA software records the change in weight of the sample during relative humidity from 0% to 80% to 0%. Depending on the specifics of the sample, different adsorption and desorption steps are also applied to the sample.

[3] = Water solubility of crystalline ozanimod salt forms (Comparative Example 1)
Experimental: The water solubility of crystalline forms of ozanimod salts of Examples 1 to 124 and ozanimod hydrochloride of Preparation Example 2 were tested.

SMILES	Slurry for 5 days in ethanol/water (1:1) (solid state after slurry) [1]	Slurry for 5 days in water (solid state after slurry) [1]	weight change according to the isothermal adsorption curve [2] [%]	25° C. water solubility ([3]; 25° C.) [µg/mL]	37° C. water solubility ([3]; 37° C.) [µg/mL]	solubility ([3]; 25° C., read-out: 25° C. water solubility) [µg/mL]	solubility ([3]; 37° C., read-out: 37° C. water solubility) [µg/mL]
CC(C)Oc1ccc(-c2nc(-c3cccc4c3CC[C@@H]4NCCO)no2)cc1C#N.O=S(=O)(O)c1ccccc1 [Ozanimod besylate Form 1]	Crystalline	Crystalline	0.05	–	–	–	–
CC(C)Oc1ccc(-c2nc(-c3cccc4c3CCC4NCCO)no2)cc1C#N.O=S(=O)(O)O (stereo not drawn) [Ozanimod hydrosulfate Form 1]	Crystalline	Crystalline	–	–	–	–	–
Br.CC(C)Oc1ccc(-c2nc(-c3cccc4c3CC[C@@H]4NCCO)no2)cc1C#N [Ozanimod hydrobromide Form 1]	Crystalline	Crystalline	–	780	3490	–	–
CC(C)Oc1ccc(-c2nc(-c3cccc4c3CC[C@@H]4NCCO)no2)cc1C#N.O=C(O)C(O)C(O)C(=O)O [Ozanimod L-tartrate Form 1]	Crystalline	Crystalline	–	–	–	–	–
CC(C)Oc1ccc(-c2nc(-c3cccc4c3CC[C@@H]4NCCO)no2)cc1C#N.O=C(O)/C=C/C(=O)O [Ozanimod fumarate Form 1]	Crystalline	Crystalline	–	2340	4550	–	–
CC(C)Oc1ccc(-c2nc(-c3cccc4c3CC[C@@H]4NCCO)no2)cc1C#N.O=C(O)/C=C\C(=O)O [Ozanimod maleate Form 1]	Crystalline	Crystalline	–	1200	5290	–	–
CC(C)Oc1ccc(-c2nc(-c3cccc4c3CC[C@@H]4NCCO)no2)cc1C#N.CC(C)Oc1ccc(-c2nc(-c3cccc4c3CC[C@@H]4NCCO)no2)cc1C#N.O=C(O)C[C@H](O)C(=O)O [Ozanimod hemi-L-malate Form 1]	Crystalline	Crystalline	–	10550	22620	–	–
CC(C)Oc1ccc(-c2nc(-c3cccc4c3CC[C@@H]4NCCO)no2)cc1C#N.CS(=O)(=O)O [Ozanimod mesylate Form 1]	Crystalline	Crystalline	–	17600	53820	–	–
CC(C)Oc1ccc(-c2nc(-c3cccc4c3CC[C@@H]4NCCO)no2)cc1C#N.O=P(O)(O)O [Ozanimod dihydrogen phosphate Form 1]	Crystalline	Crystalline	–	2540	7710	–	–
CC(C)Oc1ccc(-c2nc(-c3cccc4c3CCC4NCCO)no2)cc1C#N.CC(C)Oc1ccc(-c2nc(-c3cccc4c3CCC4NCCO)no2)cc1C#N.O=S(=O)(O)O (stereo not drawn) [Ozanimod hemisulfate Form 1]	Crystalline	Crystalline	–	–	–	–	–
CC(C)Oc1ccc(-c2nc(-c3cccc4c3CCC4NCCO)no2)cc1C#N.CC(C)Oc1ccc(-c2nc(-c3cccc4c3CCC4NCCO)no2)cc1C#N.O=C(O)C=CC(=O)O (stereo not drawn) [Ozanimod hemi-fumarate Form 1]	Crystalline	Crystalline	–	–	–	–	–
CC(C)Oc1ccc(-c2nc(-c3cccc4c3CCC4NCCO)no2)cc1C#N.O=C(O)CC(O)(CC(=O)O)C(=O)O (stereo not drawn) [Ozanimod citrate Form 1]	Crystalline	Crystalline	–	–	–	–	–
CC(C)Oc1ccc(-c2nc(-c3cccc4c3CC[C@@H]4NCCO)no2)cc1C#N [Ozanimod hydrochloride form, reference compound]	Weak crystallinity	Amorphous	0.14	–	–	610	2450
